Results reported in article PMC6874057, “Synthesis of Chalcone Derivatives: Inducing Apoptosis of HepG2 Cells via Regulating Reactive Oxygen Species and Mitochondrial Pathway” (Frontiers in Pharmacology, 2019).

Tests used:
PARP in HepG2 cells = assay: Western blot, PARP and cleaved PARP; type: cell-based, human; conditions: 48 h, compared to the control group; in words
Protocol: (§1) HepG2 cells (3 × 10^5 cells/well) were seeded into a six-well plate overnight for adherence, and then treated with a14 (0, 30, 40, 50, 60, and 70 µM) for 48 h. After the cells were collected by centrifugation, they were lysed with the radio immunoprecipitation assay (RIPA) buffer (high) containing 50 mM Tris (pH = 7.4), 150 mM NaCl, 1% TritonX-100, 1% sodium deoxycholate, 0.1% sodium dodecyl sulfate (SDS), 2 mM sodium pyrophosphate, 25 mM β-glycerophosphate, 1 mM ethylenediaminetetraacetic acid (EDTA), 1 mM Na3VO4, and 0.5 ug/ml leupeptin (Beijing Solarbio Science & Technology Co., Ltd.).The extract was then centrifuged at 12,000 rpm for 30 min and the total protein concentration was quantified using the BCA kit (Beijing Solarbio Science & Technology Co., Ltd.). The protein extracts were mixed with the SDS-PAGE protein loading buffer (Beijing Solarbio Science & Technology Co., Ltd.) and then boiled in 100°C water bath for 10 min. The gel was gelatinized using an SDS Gel Kit (Beijing Solarbio Science & Technology Co., Ltd.) and protein extracts were separated by protein SDS-polyacrylamide gel electrophoresis and transferred to Immobilon-NC Membrane (Beijing Solarbio Science & Technology Co., Ltd.). […]

Bcl-2 in HepG2 cells = assay: Western blot, Bcl-2; type: cell-based, human; conditions: different concentrations, 48 h, dose-dependent; in words
Protocol: as §1

HepG2 cells [1] = assay: DAPI staining, morphology of apoptotic cells; type: cell-based, human; conditions: various concentrations, 48 h; in words
Protocol: Firstly, HepG2 cells (3 × 10^5 cells/well) were seeded into six-well plates and kept to attach overnight. Then, the cells were incubated with a14 at different concentrations (0, 30, 50, and 70 µM) for 48 h, washed by ice-cold PBS solution and fixed with 4% paraformaldehyde for 10 min at room temperature. The cells was processed by DAPI (10 µg/ml) for 15 min in the dark, and the residual DAPI was rinsed two more times by ice-cold PBS. Then, the cells were transferred on a glass slide, fixed with a coverslip and placed under a fluorescence microscope (Motic China Group Co., Ltd., Shenzhen, China) to be observed and photographed at an excitation wavelength of 480/30× nm and the emission wavelength of 515 nm. Condensation of chromatin and fragmentation of nuclei could be applied to determine the apoptotic cells.

HepG2 cells [2] = assay: Cell cycle arrest by PI staining, flow cytometry; type: cell-based, human; conditions: for G2/M: 24 h
Protocol: HepG2 cells were seeded into six-well plates (3 × 10^5/well) overnight to allow the cells to grow adherently and then incubated with a14 at the concentrations of 0, 30, 40, 50, 60 or 70 µM for 24 and 48 h. After the incubation time, the cells were collected by centrifugation (1000 r/min) and fixed overnight with […] ethanol at 4°C, and then the cells were removed and washed three times with ice-cold PBS. Afterwards, the cells were added to RNase A (Beijing Solarbio Science & Technology Co., Ltd.), and incubated for 30 min at 37°C, after which PI (Beijing Solarbio Science & Technology Co., Ltd.) was added. The fluorescence was monitored by a Beckman Coulter flow cytometer (Beckman Coulter, Inc. California). Ten thousand events were collected per sample, and the data were analyzed using Modfit LT 5.0 software.

[3] = system: adherent tumor cell lines (HepG2, A549 and Hela); assay: MTT assay, summary over adherent tumor cell lines; type: cell-based; conditions: Homo sapiens; span of IC50 over compounds a11-a14 and adherent tumor cell lines; read-out: IC50 range over cell lines
Protocol: HeLa, A549, HepG2, HL-60, and WI-38 cell lines were incubated in DMEM solution containing 10% FBS for 48 h. The incubated tumor cells were seeded into 96-well plates (5 × 10^3 cells/well) to make them attach for 12 h. Afterwards, the cells were processed with the various concentrations of the synthetic compounds and 5-FU for 48 h. After removing the cell culture supernatant, 10 µl MTT (5 mg/ml) solution was dripped into the cells to generate a formazan product, which were dissolved by dimethyl sulfoxide (DMSO) 4 h later. Multifunction microplate reader (Bio-Rad Laboratories, Shanghai, China) was adopted to measure the absorbance at the wave length of 490 nm. The IC50 (the lowest drug concentration causing 50% of the tumor cells inhibition) was then calculated using GraphPad Prism Software (version 5.02) and used to indicate the cytotoxic effect of the target compounds on the selected tumor cells.

Caspase 3 in HepG2 cells = assay: Western blot, Caspase 3; type: cell-based, human; conditions: 48 h, compared to the control group; in words
Protocol: as §1

HepG2 cells [4] = assay: Inhibition curve of a14 on HepG2 cells (MTT, 24, 48, 72 h); type: cell-based, human; conditions: in words
Protocol: HepG2 cells (5 × 10^3 cells/well) were seeded into the 96-well plates and kept to attach overnight. […] After the incubation time, 10 µl MTT was added to each well, and the culture was continued in a sterile incubator at 37°C for 4 h under the environment of 5% CO2. Then, the supernatant medium was discarded, and the solid was dissolved in 200 µl DMSO. Then, a multifunction microplate reader (Bio-Rad Laboratories, Shanghai, China) was applied to record the absorbance at 490 nm. Cell growth inhibition rates at different concentrations were calculated and plotted using Origin Pro8 software. Each set of data represented the average value of three independent experiments.

COc1cc(/C=C/C(=O)c2ccc(O)c(C(N)=O)c2)cc(OC)c1OC [a14]
expression level of PARP (PARP in HepG2 cells): decrease | level of cleaved PARP proteins (PARP in HepG2 cells): increase | expression of anti-apoptotic proteins (Bcl-2) (Bcl-2 in HepG2 cells): down-regulated | morphological changes of the nucleus (DAPI) (HepG2 cells [1]): a large number of nuclear condensation and nuclear fragmentation | G2/M (HepG2 cells [2]; a14 30 µM): 19.07% | increase of percentage of G2/M compared with the untreated group (HepG2 cells [2]; a14 50 µM, 48 h): 73.82% | G2/M (HepG2 cells [2]; a14 70 µM): 79.57% | IC50 [3]: 23.3 to 54.4 µM | expression level of Caspases 3 (Caspase 3 in HepG2 cells): decrease | inhibitory activities on HepG2 cells (HepG2 cells [4]; 24, 48, 72 h, different concentrations): dose- and time-dependent manner | growth inhibition effect on HepG2 cells (HepG2 cells [4]; action time 48 or 72 h): significantly improved | cytotoxic effect on HepG2 cells (HepG2 cells [4]; action time less than 24 h): relatively weak
